Read-outs that look alike come from different tables or passages of the source.
Key:
[1] = in vivo
[2] = system: alopecia areata lesion area; test: C3H/HeJ alopecia areata mouse model; type: in vivo, C3H/HeJ mice; conditions: 3 mg/kg or 10 mg/kg oral twice a day, 12 weeks
Description: The efficacy of NXC736 on alopecia areata was evaluated by using the alopecia areata mouse model C3H/HeJ (Jackson Lab, Saeron Bio).
C3H/HeJ mice, 10 to 16 weeks of age, in which alopecia areata was not induced, were divided into two groups: a control group (sterile distilled water administration group) and an NXC736 administration experimental group, and 5 mice per group were randomly assigned. After the lymph node cells were proliferated and injected into the C3H/HeJ mice, the NXC736 administration experimental group was orally administered with 3 mg/kg or 10 mg/kg of NXC736, and the control group was orally administered with the same volume of sterile distilled water twice a day at the same time for 12 weeks. The alopecia areata lesion area and disease free ratio were measured at two-week intervals. The animal breeding room was maintained at a temperature of 23±3°C, a relative humidity of 50±10%, and a 12-hour light and dark cycle, and the experimental animals were bred in isolation boxes (ThreeShine) and were given experimental animal feed and water ad libitum.
After 12 weeks, the circular alopecia lesion area was photographed and quantified by using the Image J program (Version 1.44p).

[3] = system: lymphocyte-mediated diseases; conditions: alopecia areata, inflammatory bowel disease, interstitial fibrosis and tubular atrophy, focal segmental glomerulosclerosis; Korean patents; cited from earlier work
[4] = system: absolute lymphocyte count (ALC); test: Phase 1 clinical trial, single administration: pharmacodynamics by hematological test; type: in vivo, healthy adult males
Description: (§1) A randomized, double-blind, placebo-controlled, step-escalation, single- and multiple-dose phase 1 clinical trial was conducted to evaluate the safety, tolerability, and pharmacokinetic/pharmacodynamic characteristics of a compound of Chemical Formula 1 (NXC736) after oral administration to healthy adult males.
(§2) The subjects were administered a single oral dose of the clinical trial drug on an empty stomach at around 9:00 AM on the day of administration after fasting for at least 10 hours. In the single-administration trial, the subjects were administered the drug and hospitalized for 8 days. After discharge, they were observed through outpatient visits until day 21. Blood was collected once before administration and at regular intervals after administration, and hematological tests were performed.

[5] = Phase 1 clinical trial, single administration: pharmacokinetics; type: in vivo, healthy adult males
Description: as §1, §2

[6] = system: Sphingosine-1 Phosphate (S1P) receptor; conditions: background art statement; cited from earlier work
[7] = Phase 1 clinical trial, repeated administration: pharmacokinetics; type: in vivo, healthy adult males
Description: as §1
(§3) The subjects fasted for at least 10 hours before the first administration. Afterwards, the clinical trial drug was administered orally twice a day for 13 days and once on day 14 in a fasting state at around 9:00 AM and 9:00 PM. The administration was performed twice a day for approximately 14 days, and the subjects were discharged on day 21 from the first administration and observed through outpatient visits until day 36. Blood was collected once before administration and at regular intervals after administration, and hematological tests were performed.

[8] = Phase 1 clinical trial, single ascending dose (SAD): safety and tolerability; design: species or system healthy adult males; conditions: in vivo
Description: as §1
The clinical trial drug product is a white, round, film-coated tablet (1 mg, 3 mg tablet) or a yellow, round, film-coated tablet (10, 20 mg, 40 mg, 60 mg, 80 mg tablet) containing the active ingredient (main ingredient) NXC736 and excipients such as diluents, binders, disintegrants, fluidizing agents and glidants. The NXC736 clinical trial drug product was manufactured as an 84 mg film-coated tablet containing 1 mg or 3 mg of the main ingredient, or a 334 mg film-coated tablet containing 10 mg, 20 mg, 40 mg, 60 mg or 80 mg of the main ingredient, and it can be stored at room temperature (1 to 30°C) in an airtight container.
In this clinical trial, a total of 42 subjects were randomly assigned to a single-administration, and a total of 39 subjects completed the study according to the clinical trial protocol. A total of 33 subjects were assigned to a repeated-administration trial, and a total of 32 subjects completed the study according to the clinical trial protocol.
as §2

[9] = system: absolute lymphocyte count (ALC); test: Phase 1 clinical trial, repeated administration: pharmacodynamics by hematological test; type: in vivo, healthy adult males
Description: as §1, §3

[10] = system: lymphocytes in the peripheral blood stream; test: Absolute lymphocyte count suppression in healthy rats; type: in vivo, SD rats
T lymphocytes = conditions: through the suppression of T lymphocytes; cited from earlier work

CCCCCCCCCCn1cc(CCC(N)(CO)CO)nn1 [NXC736]
serious adverse reactions [1]: No serious adverse reactions were observed
circular alopecia lesion area compared to control group [2]: effectively reduced
dose dependence of therapeutic effect on alopecia lesion area [2]: concentration-dependent therapeutic effect was observed
treatment of lymphocyte-mediated diseases in animal experiments [3]: effectively treat
change in ALC ([4]; single administration 1 mg): 16%
change in ALC ([4]; single administration 3 mg): 27%
change in ALC ([4]; single administration 10 mg): 27%
change in ALC ([4]; single administration 20 mg): 25%
absolute lymphocyte count after administration compared to before administration ([4]; single administration 40 mg): about 68%
absolute lymphocyte count after administration compared to before administration ([4]; single administration 80 mg): about 54%
elimination in urine [5]: hardly eliminated in urine
half-life ([5]; human, in vivo, po, read-out: average elimination half-life (converted)): ~10 h
Tmax ([5]; human, plasma, po, read-out: time to reach peak plasma concentrations): ~1 h
binding selectivity among S1P receptor subtypes [6]: selectively binds to S1P1 and S1P4
accumulation at steady state compared to the first administration ([7]; repeated administration): approximately twice
dose proportionality of Cmax,ss and AUCtau,ss ([7]; repeated administrations): confirmed
adverse reactions (ADR) assessed as having a causal relationship with the investigational drug [8]: 12
adverse reactions (number of events) [8]: 23
decrease in heart rate after administration [8]: observed in most subjects administered NXC736
difference in frequency of adverse reactions between dose groups [8]: no significant difference in the frequency of adverse reactions between the dose groups
serious adverse reactions [8]: No serious adverse reactions were observed
severity and outcome of adverse reactions [8]: Most adverse reactions were mild and all recovered during the trial period
subjects with adverse reactions [8]: 9
change in ALC ([9]; 20 mg twice daily, 14-day repeated administration): ≤ 30%
ALC reduction effect ([9]; 40 mg to 80 mg, repeated administrations twice a day): ≥ 50%
absolute lymphocyte count decrease ([9]; 60 mg twice-daily administration group or higher, 14 days): up to 70%
absolute lymphocyte count after administration compared to before administration ([9]; repeated administrations 40 mg): about 43%
absolute lymphocyte count after administration compared to before administration ([9]; repeated administrations 60 mg): about 32%
absolute lymphocyte count after administration compared to before administration ([9]; repeated administrations 80 mg): about 36%
lymphocytes suppressed by ([10]; 5 mg/kg oral twice a day, 4 hours after the first administration): up to 78%
lymphocytes suppressed by ([10]; 5 mg/kg oral twice a day, 4 hours after the second administration (16 hours after the first)): approximately 90%
lymphocytes recovered to ([10]; 5 mg/kg oral twice a day, 24 hours): approximately 50%
lymphocytes suppressed by ([10]; 10 mg/kg oral twice a day, 4 hours after the first administration): up to 83%
lymphocytes suppressed by ([10]; 10 mg/kg oral twice a day, 4 hours after the second administration (16 hours after the first)): up to 94%
lymphocyte suppression effect maintained ([10]; 10 mg/kg oral twice a day, up to 24 hours): about 80%
lymphocyte suppression effect maintained ([10]; 10 mg/kg oral twice a day, up to 36 hours): about 70%
lymphocytes suppressed by ([10]; 20 mg/kg oral once a day, 12 hours): up to 92%
lymphocytes recovered to ([10]; 20 mg/kg oral once a day, 24 hours): 60%
lymphocytes recovered to ([10]; 20 mg/kg oral once a day, 48 hours): 100%
lymphocyte suppression effect, twice a day vs once a day ([10]; 5 or 10 mg/kg BID vs 20 mg/kg QD): superior when administered twice a day even at a lower dose compared to when administered once a day

C=CC(=O)N1C[C@H](Nc2ncnc3[nH]ccc23)CC[C@@H]1C [Ritlecitinib]
therapeutic effect on alopecia areata (T lymphocytes): show a therapeutic effect on alopecia areata

Source: patent EP4714468A1, “METHOD FOR ADMINISTERING MODULATOR TARGETING S1PR1 AND S1PR4” (priority 2023, dated 2024)
